In this assay the test system is viral neuraminidase. Type of assay: biochemical, influenza. The note with it: pH 5.5.

Regarding “Sodium (4-(4-hydroxy-3-methoxyphenyl)butan-2-one-5-acetamido-3,5-dideoxy-α-D-glycero-D-galacto-2-nonulopyranoside)onate [zingerone]”, the “whether the substrate was cleaved and odorant released (decrease of the substrate signal and appearance of the cleavage products signal)” value is “significant loss of peak”.

In the case of `CC(=O)NC1C(O)CC(OCC2(C)CC2CC2CC3CC3(C)C2(C)C)(C(=O)O)OC1CC(O)CO` [javanol, Sodium ([(1R,2S)-1-methyl-2-[[(1R,3S,5S)-1,2,2-trimethyl-3-bicyclo[3.1.0]hexanyl]methyl]cyclopropyl]methyl-5-acetamido-3,5-dideoxy-α-D-glycero-D-galacto-2-nonulopyranoside)onate], the “whether the substrate was cleaved and odorant released (decrease of the substrate signal and appearance of the cleavage products signal)” value is “substrate is still present”.

These data come from patent US20120122079A1, “INFECTION DETECTION METHODS AND SYSTEMS AND RELATED COMPOUNDS AND COMPOSITIONS” (priority 2010, published 2012).
